Usually GI50 stands for the concentration at which growth is held to half of that of the control. The TGI is the concentration at which net growth stops.

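Results reflect a 48-hour exposure of cells in 96-well plates to compound at five concentrations. GI50: concentration for 50% inhibition of growth. TGI denotes the concentration required for complete inhibition of growth.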

This is an account of results in PubChem BioAssay (NCI).

Common to all, as to test: DTP human tumour cell line panel, 48 h
Experiment [1] relates to HCC-2998 colon.
The subject of experiment [2] is RPMI-8226 leukemia.
Experiment [3] deals with SF-539 CNS.
Experiment [4] relates to NCI/ADR-RES ovarian.
The subject of experiment [5] is M14 melanoma.
The test system of experiment [6] is MDA-MB-231 breast.
Experiment [7] relates to SF-295 CNS.
The subject of experiment [8] is T-47D breast.
Experiment [9] concerns SW-620 colon.
Experiment [10] relates to HOP-92 NSCLC.

Consider `Cn1cc(C2=C(c3cn(CCCCCO)c4ccccc34)C(=O)NC2=O)c2ccccc21`, for which the GI50 in experiment [1] was 7.47 µM; in experiment [2], 6.6 µM; in experiment [3], 3.16 µM; in [4], 7.04 µM; in experiment [5], 5.38 µM; in experiment [6], 8.93 µM. Further, the GI50 in experiment [7] is 4.5 µM; in experiment [8] it was 6.44 µM; in experiment [9] it was 3.17 µM. Further, the TGI in [1] was greater than 20.6 µM; in experiment [2], 18.4 µM; in experiment [3], 8.55 µM; in experiment [4], greater than 22.5 µM; in experiment [5] it was greater than 25 µM; in experiment [6], greater than 24 µM. In addition, the TGI in experiment [7] was 13.9 µM; in [8], 16 µM; in [9], greater than 25 µM.
For the compound `O=C(O)c1cn(C2CC2)c2cc(N3CCN(Cc4c(O)ccc5ccccc45)CC3)c(F)cc2c1=O`, the GI50 was greater than 100 µM in [1]; 12 µM in experiment [2]; 2.1 µM in experiment [3]; 11.4 µM in [4]; 2.46 µM in experiment [10]; 3.95 µM in experiment [5]. Also, the GI50 in experiment [6] is 5.15 µM; in experiment [7], 8.22 µM; in [8] it was greater than 100 µM; in [9], 4.12 µM. The TGI in experiment [1] was greater than 100 µM; in experiment [2], greater than 100 µM; in [3], 4.9 µM; in experiment [4], greater than 100 µM; in experiment [10], 8.88 µM; in experiment [5] it was greater than 100 µM. Further, the total growth inhibition concentration (TGI) in [6], in experiment [7], in [8] and in [9] was greater than 100 µM throughout.
As to `COc1cc(/C=C/C(=O)c2c(-c3ccc(F)cc3)nc3sc(C)nn23)cc(OC)c1OC`, the GI50 was 2.12 µM in [1]; 1.92 µM in experiment [2]; 2.09 µM in [3]; 2.57 µM in experiment [4]; 1.6 µM in experiment [10]; 3.05 µM in experiment [5]. Also, the GI50 in [6] was 1.99 µM; in [7], 4.03 µM; in experiment [8], 2.09 µM; in experiment [9], 2.02 µM. Besides, the TGI in experiment [1] was 3.96 µM; in experiment [2], 5.13 µM; in [3], 4.54 µM; in experiment [4], 9.91 µM; in experiment [10], 8.64 µM; in [5], 8.1 µM. Further, the TGI in [6] came out at 8.51 µM; in experiment [7], 15.9 µM; in experiment [8], 7.57 µM; in experiment [9], 4.51 µM.
In the case of `CN1C(=O)C2(c3ccccc31)C1CC3C(CO1)C1C2C3(CO)CN1C#N` (stereo unspecified), the TGI in experiment [1], in experiment [2], in experiment [4], in experiment [10], in experiment [5] and in [6] was greater than 100 µM throughout. The TGI in experiment [7] and in experiment [8] was greater than 100 µM throughout.
Regarding `O=c1cccc2n1CC1CNC[C@H]2C1`, the TGI in experiment [1], in experiment [4], in experiment [10], in experiment [5], in experiment [6] and in experiment [7] was greater than 100 µM each time. Moreover, the TGI in experiment [8] and in [9] was greater than 100 µM throughout.
For `COc1cc(CCNC(=O)OC(C)(C)C)c2c(c1OC)SSSSS2`, the GI50 was 2.11 µM in [2]; 3.42 µM in [3]; 3.64 µM in experiment [4]; 2.31 µM in [10]; 4.13 µM in [5]; 2.58 µM in experiment [6]. Moreover, the GI50 was 2.76 µM in experiment [7], 2.77 µM in [8] and 2.8 µM in experiment [9]. Also, the TGI came out at 10.7 µM in experiment [2]; 10.4 µM in experiment [3]; 70.2 µM in [4]; 4.79 µM in [10]; 50.7 µM in [5]; 5.82 µM in experiment [6]. Besides, the total growth inhibition concentration (TGI) is 6.43 µM in experiment [7], 5.92 µM in [8] and 7.69 µM in experiment [9].
`COc1ccc2nc3cccc([N+](=O)[O-])c3c(NC(C)CN(C)C)c2c1` (stereo unspecified): the GI50 in [2] was 1.78 µM; in experiment [3], 2.66 µM; in [4] it was 2.92 µM; in experiment [10], 2.38 µM; in experiment [5], 1.41 µM; in experiment [6], 2.23 µM. In addition, the figures for the GI50 in experiment [7], in experiment [8] and in experiment [9] were 2.37 µM, 5.52 µM and 1.9 µM, respectively. Also, the TGI was found to be 6 µM in [2]; 6.46 µM in experiment [3]; 13 µM in experiment [4]; 5.68 µM in [10]; 2.8 µM in experiment [5]; 10.6 µM in experiment [6]. Besides, the TGI turned out to be 10.1 µM in experiment [7], 36 µM in experiment [8] and 12.5 µM in [9].
As to `O=C(c1ccccc1)c1nc2ccc(C(F)(F)F)cc2nc1N1CCN(c2ccccc2)CC1`, the GI50 in experiment [2] was 23.3 µM; in experiment [3] it was 52.9 µM; in experiment [4], 34.2 µM; in experiment [10] it was 49.3 µM; in experiment [5], 23.2 µM; in [6], 23.4 µM. For the same compound, the figures for the GI50 in [7], in [8] and in experiment [9] were 42.8 µM, 21.8 µM and 34.7 µM, respectively. In addition, the concentration for total growth inhibition (TGI) is greater than 100 µM in experiment [2]; greater than 100 µM in experiment [3]; greater than 100 µM in experiment [4]; greater than 100 µM in experiment [10]; 55.3 µM in [5]; 63.9 µM in experiment [6]. In addition, the TGI in experiment [7] was greater than 100 µM; in experiment [8], 48.9 µM; in experiment [9], greater than 100 µM.
For `CC(=O)N[C@@H](Cc1ccc(OP(=O)(O)O)cc1)C(=O)N[C@H]1CCC(=O)N2CCC[C@@H](C(=O)NCc3ccccc3)N2C1=O`, the GI50 in [1], in [2], in experiment [3], in experiment [4], in experiment [5] and in [6] was greater than 25 µM in each case. In addition, the GI50 in experiment [7], in [8] and in experiment [9] was greater than 25 µM in each case. For the same compound, the TGI in [1], in [2], in experiment [3], in experiment [4], in experiment [5] and in experiment [6] was greater than 25 µM in each case. The TGI in experiment [7], in experiment [8] and in experiment [9] was greater than 25 µM in each case.
Take `C=CCOC(=O)Nc1cccn([C@H](CC(C)C)C(=O)NCCC(C)C)c1=O`: the GI50 is 22.7 µM in experiment [2]; greater than 100 µM in experiment [3]; 57.9 µM in experiment [4]; 2.67 µM in experiment [10]; greater than 100 µM in [5]; 21.1 µM in [6]. Moreover, the GI50 in experiment [7] was 18.7 µM; in experiment [8] it was 68.2 µM; in experiment [9], greater than 100 µM. In addition, the TGI in experiment [2] was greater than 100 µM; in experiment [3] it was greater than 100 µM; in experiment [4] it was greater than 100 µM; in experiment [10], 57.8 µM; in experiment [5], greater than 100 µM; in [6], 67.2 µM. Moreover, the TGI in experiment [7], in experiment [8] and in [9] was greater than 100 µM in each case.
`Cc1c2c(nn1-c1ccc(S(=O)(=O)NC(=S)NC(=O)c3ccccc3)cc1)-c1ccccc1CC2`: the GI50 in experiment [1] was 89.2 µM; in experiment [2], 36.3 µM; in [4], greater than 100 µM; in experiment [10], greater than 100 µM; in experiment [5] it was greater than 100 µM; in experiment [6] it was 42.5 µM. The GI50 was 17.4 µM in [7], 44.9 µM in [8] and greater than 100 µM in experiment [9]. The TGI in experiment [1], in experiment [2], in experiment [4], in experiment [10], in experiment [5] and in [6] was greater than 100 µM in each case. Further, the TGI in experiment [7] is 48.6 µM; in [8], greater than 100 µM; in experiment [9], greater than 100 µM.
For `O=C1c2cc(F)ccc2-c2c1c1ccc([N+](=O)[O-])cc1c(=O)n2CCCBr`, the GI50 in experiment [1] was 10.7 µM; in experiment [2], 5.98 µM; in experiment [4] it was 4.37 µM; in experiment [5] it was 13.3 µM; in experiment [6], greater than 100 µM; in experiment [7], 17.8 µM. For the same compound, the GI50 in [8] is 7.53 µM; in experiment [9] it was 10.2 µM. Moreover, the TGI is greater than 100 µM in experiment [1]; 51.8 µM in experiment [2]; 41.3 µM in experiment [4]; 46.3 µM in experiment [5]; greater than 100 µM in experiment [6]; greater than 100 µM in experiment [7]. For the same compound, the TGI in experiment [8] and in experiment [9] was greater than 100 µM each time.
`COC(=O)CNc1nc(N(C)O)nc(N(C)O)n1`: the GI50 is 1.49 µM in experiment [2]; 3.48 µM in experiment [3]; 2.86 µM in experiment [4]; greater than 100 µM in [10]; 3.38 µM in experiment [5]; 4.16 µM in experiment [6]. For the same compound, the GI50 in experiment [7] was 2.92 µM; in experiment [8], 17.7 µM; in experiment [9] it was 5.07 µM. Besides, the TGI is greater than 100 µM in [2]; greater than 100 µM in experiment [3]; greater than 100 µM in experiment [4]; greater than 100 µM in [10]; 32.6 µM in [5]; greater than 100 µM in experiment [6]. Also, the TGI in experiment [7], in experiment [8] and in experiment [9] was greater than 100 µM throughout.
